“And” between values parts separate entries of the source, which are not always exact repeats. Identical values can stand only once.
Assays:
[1] = system: Drosophila melanogaster; test: In vivo antihyperglycemic test in Drosophila on high sugar diet; settings: for significance of antihyperglycemic activity: Drosophila on HSD, 18 μg g^−1 feed; for reduction in glucose levels, female flies / percent reduction in glucose levels, male flies: HSD with 18 μg g^−1 feed, 10 days
Experimental: In this study, Oregon-R flies were obtained directly from the Nitte University, Drosophila Lab, Mangalore, India, and maintained on a wheat cream-agar medium with a relative humidity of 65–70%, and a light–dark cycle of twelve hours each. Separation of males and females of one-day-old flies were cultured in, food containing high sugar diet (HSD), and different groups of food containing HSD with uniform concentrations (18 μg g^−1 feed) of the compounds 5a, 5b, 5j for 10 days. Acarbose was administered as a positive control. Twenty flies were taken and they were homogenized in 0.2 mL of ice-cold phosphate buffer saline. (pH 7.4). Homogenized samples were centrifuged at 10 000g for 15 min at 4 °C. All fly homogenates were tested for glucose concentration using the manufacturer's protocol (Agape Diagnostics Ltd, India). Throughout the experiments, the control group was maintained in the same conditions as that of other groups except for HSD and compounds. All experiments were carried out in triplicates and the results were expressed in percentages respective to the control group.[32]
The results of all the experiments (n = 3) were analyzed and expressed as mean ± standard deviation (SD). The Student's t-test was performed using GraphPad Prism software (GraphPad Software Inc., CA, USA). p values ≤ 0.05 were considered as statistically significant (*p ≤ 0.05; *p ≤ 0.01; **p ≤ 0.001).

[2] = biological target: α-amylase; test: In vitro α-amylase inhibitory assay; type: biochemical; settings: mean of three replicates ±SD
Experimental: The reaction mixture contains 20 μL of α-amylase solution (0.5 mg mL^−1) and 200 μL of sodium phosphate buffer (pH 6.9, 0.02 M). Test samples ([…]) were added (250 μL) to the reaction mixture following which; incubation was carried out for 10 min at room temperature. This was accompanied by the addition of 200 μL of 1% starch solution, and further incubated for 10 min at 25 °C. By adding 400 μL of dinitrosalicylic acid (DNS) reagent, the reaction was terminated. Lastly, it was incubated in water (70 °C, 5 min). The absorbance was recorded using an ELISA microplate reader at 540 nm. […] All the experiments were performed in triplicates. It was the reaction mixture without the test sample that served as the control for the test.[31]
The percent inhibition was calculated as:% Inhibition = [(C − T)/C] × 100C – absorbance of control, T – absorbance of sample.

[3] = biological target: α-glucosidase; test: In vitro α-glycosidase inhibitory assay; type: biochemical; settings: mean of three replicates ±SD
Experimental: The reaction mixture contains 50 μL of 0.1 M phosphate buffer (pH = 6.8), 10 μL of α-glucosidase enzyme and 20 μL of test samples (10–50 μg mL^−1) were taken in a 96-well plate and incubated at 37 °C for 15 min. Furthermore, 20 μL of p-nitrophenyl D-glucopyranoside solution was added as a substrate and incubated for an additional 20 min at 37 °C. 50 μL of 0.1 M Na2CO3 is added to terminate the reaction. The liberated p-nitrophenol was measured at 405 nm with an Elisa microplate reader. […] All the experiments were performed in triplicates.[31]
The inhibition was calculated in percentage as:% Inhibition = [(C − T)/C] × 100C – absorbance of control, T – absorbance of sample.

[4] = system: NIH/3T3 cells; test: MTT cytotoxicity assay; type: cell-based; settings: 100 μmol, 24 h incubation
Experimental: The cytotoxic concentration of synthetic compounds (5a–5j) was evaluated by MTT assay. A standard MTT assay was performed with various concentrations of synthesized compounds against NIH/3T3 cells using a 96-well microplate reader at 570 nm. The cell lines were cultured in DMEM, supplemented with 10% FBS in flasks, and incubated at 37 °C with 5% CO2 in DMEM medium with streptomycin and penicillin (100 IU mL^−1) at the appropriate concentrations. The 96-well plates with media were incubated. After overnight incubation, each plate was discarded and fresh medium was added to each well with varying concentrations (5 μM, 10 μM, 25 μM, 50 μM, 100 μM) of test samples. Then, 200 μL of MTT (0.5 mg mL^−1) were put in each well and further incubated for four hours. Afterward, DMSO (100 μL) was transferred into each microplate well. The absorbance was measured at 570 nm to determine how much MTT was reduced to formazan in the cells.

With `C[C@H]1O[C@H](O[C@H]2[C@H](O)[C@@H](O)[C@@H](O[C@H]3[C@H](O)[C@@H](O)C(O)O[C@@H]3CO)O[C@@H]2CO)[C@H](O)[C@@H](O)[C@@H]1N[C@H]1C=C(CO)[C@@H](O)[C@H](O)[C@H]1O` (stereo partly shown) [Acarbose, reference compound] the “reduction in glucose level” value ([1]; HSD along with acarbose, whole-body homogenate, sex not stated) was “about 62%”.
Work on `COc1ccc(-c2nnc(CN3C(=O)CSC3=O)o2)cc1` [Compound 5f, 3-((5-(4-Methoxyphenyl)-1,3,4-oxadiazol-2-yl)methyl)thiazolidine-2,4-dione] yielded a melting point of 178 to 180 °C, an IC50 [2] of 39.2 ± 0.52 µM and an IC50 [3] of 51.3 ± 0.83 µM.
With `O=C1CSC(=O)N1Cc1nnc(-c2ccc([N+](=O)[O-])cc2)o1` [Compound 5i, 3-((5-(4-Nitrophenyl)-1,3,4-oxadiazol-2-yl)methyl)thiazolidine-2,4-dione] the melting point was 153 to 155 °C, the IC50 [2] was 21.1 ± 0.23 µM and the IC50 [3] was 25.2 ± 0.28 µM.
With `O=C1CSC(=O)N1Cc1nnc(-c2ccc(Cl)cc2)o1` [Compound 5g, 3-((5-(4-Chlorophenyl)-1,3,4-oxadiazol-2-yl)methyl)thiazolidine-2,4-dione] the melting point was 172 to 174 °C, the IC50 [2] was 28.9 ± 0.36 µM and the IC50 [3] was 27.25 ± 0.24 µM.
`O=C1CSC(=O)N1Cc1nnc(-c2ccc([N+](=O)[O-])cc2Cl)o1` [Compound 5h, 3-((5-(2-Chloro-4-nitrophenyl)-1,3,4-oxadiazol-2-yl)methyl)thiazolidine-2,4-dione] gave a melting point of 161 to 163 °C, an IC50 [2] of 23.2 ± 0.31 µM and an IC50 [3] of 28.2 ± 0.31 µM.
For `O=C1CSC(=O)N1Cc1nnc(-c2ccc(Cl)cc2Cl)o1` [Compound 5a, 3-((5-(2,4-Dichlorophenyl)-1,3,4-oxadiazol-2-yl)methyl)thiazolidine-2,4-dione], the melting point was 210 to 212 °C, the IC50 [2] was 18.6 ± 0.22 µM and the “significance of antihyperglycemic activity” value (shortened to “significance”) [1] was “insignificant”. For the same compound, the “reduction in glucose levels, female flies” value (from here on “reduction … female flies”) ([1]; whole-body homogenate) was 12.1%, the “percent reduction in glucose levels, male flies” value (shortened to “percent reduction”) ([1]; whole-body homogenate) was 27.7% and the IC50 [3] was 17.6 ± 0.19 µM.
With `O=C1CSC(=O)N1Cc1nnc(-c2ccc(O)cc2O)o1` [Compound 5j, 3-((5-(2,4-Dihydroxyphenyl)-1,3,4-oxadiazol-2-yl)methyl)thiazolidine-2,4-dione] the “percentage cell toxicity (inhibition of cellular viability)” value [4] was 83%, the melting point was 204 to 206 °C and the IC50 [2] was 18.4 ± 0.21 µM. The “significance” value [1] was “significant”, the “reduction … female flies” value ([1]; whole-body homogenate) was 37% and the “percent reduction” value ([1]; whole-body homogenate) was 29.05%. For the same compound, the IC50 [3] was 17.2 ± 0.22 µM.
In the case of `O=C1CSC(=O)N1Cc1nnc(-c2ccccc2)o1` [Compound 5e, 3-((5-Phenyl-1,3,4-oxadiazol-2-yl)methyl)thiazolidine-2,4-dione], the melting point is reported as 215 to 217 °C, the IC50 [2] is reported as 32.4 ± 0.46 µM and the IC50 [3] is reported as 33.5 ± 0.45 µM.
With “3-((5-(4-Bromophenyl)-1,3,4-oxadiazol-2-yl)methyl)thiazolidine-2,4-dione [Compound 5b]” the IC50 [2] was 34.1 µM and 22.6 µM, the “significance” value [1] was “significant” and the “reduction … female flies” value ([1]; whole-body homogenate) was 7.03%. For the same compound, the “percent reduction” value ([1]; whole-body homogenate) was 28.4% and the IC50 [3] was 22.25 ± 0.22 µM.
In the case of “3-((5-(4-Aminophenyl)-1,3,4-oxadiazol-2-yl)methyl)thiazolidine-2,4-dioneone [Compound 5c]”, the IC50 [2] is reported as 22.6 µM and 34.1 µM and the IC50 [3] is reported as 27.25 ± 0.23 µM.
For `O=C1CSC(=O)N1Cc1nnc(-c2ccc(O)cc2)o1` [Compound 5d, 3-((5-(4-Hydroxyphenyl)-1,3,4-oxadiazol-2-yl)methyl)thiazolidine-2,4-dione], the “percentage cell toxicity (inhibition of cellular viability)” value [4] was 87%, the melting point was 192 to 194 °C and the IC50 [2] was 55.4 ± 0.66 µM. For the same compound, the IC50 [3] was 45.3 ± 0.79 µM.
